These results are taken from US11286259B2, “Co-crystals of ribociclib and co-crystals of ribociclib monosuccinate, preparation method therefor, compositions thereof, and uses thereof” (Hangzhou SoliPharma Co., Ltd., priority 2017, dated 2022).

Like-named read-outs stand apart in the source and are kept apart here.

The nature of data set [1]: stability test in water, stirred at 25° C. for 24 hours, crystal form detection by XRPD. The data set is classed as physicochemical. The conditions noted are these: for Crystal Form: 100 mg in 5 mL deionized water, stirred at 25° C. for 24 hours, XRPD.
The conditions of data set [2]: desiccator, 4 months, room temperature, relative humidity of 10% to 90%.
Data set [3] in a line: crystal form stability at high humidity. The data set is classed as physicochemical.
Data set [4] in a line: water solubility test (apparent water solubility, HPLC detection). As to conditions: 10 mg in 10 mL deionized water, sonicated at 25° C. for 1 minute.
A short description of data set [5]: crystal stability test, samples placed at 80° C. for 24 hours, crystal form detection by XRPD. The data set is classed as physicochemical. As to conditions: after being placed for 24 hours at 80° C.
For data set [6] the following is noted: high humidity, mentioned in CN105085533A, cited from earlier work.
The next data set is described as follows: physchem. The conditions noted are these: deionized water, 25 °C, thermodynamic from solid.
Data set [7] in a line: hygroscopicity, isothermal adsorption curve (weight gain versus relative humidity). The data set is classed as physicochemical.
Where [8] appears, read: listed as co-crystal form of ribociclib monosuccinate and citric acid.

Take `CN(C)C(=O)c1cc2cnc(Nc3ccc(N4CCNCC4)cn3)nc2n1C1CCCC1.O=C(O)CCC(=O)O` [listing 1 of 2 here]: the “Crystal Form” value in data set [1] was “cannot maintain its original crystal form”. For the same compound, the “crystal stability in water” value in data set [1] (in water, conditions not given, found by the inventors) is on record as “crystallinity decreased significantly in water”.

As to `CN(C)C(=O)c1cc2cnc(Nc3ccc(N4CCNCC4)cn3)nc2n1C1CCCC1.O=C(O)c1cc(=O)[nH]c(=O)[nH]1`, the “appearance, XRPD and melting point after storage” value (“appearance … after storage” below) in data set [2] is “remain unchanged”. Besides, the “crystal form at high humidity” value in data set [3] is “remains unchanged”. The Solubility in data set [4] stood at 110 µg/mL.

As for `CN(C)C(=O)c1cc2cnc(Nc3ccc(N4CCNCC4)cn3)nc2n1C1CCCC1.O=C(O)CC(O)(CC(=O)O)C(=O)O.O=C(O)CCC(=O)O`, in data set [2], the “appearance … after storage” value was “remain unchanged”. In addition, the “Crystal Form” value in data set [1] (setting [8]) is on record as “remains unchanged”; in data set [1] (listed as co-crystal of ribociclib monosuccinateand citric acid), “Unchanged”; in data set [5] it was “Unchanged”; in data set [5] (setting [8]) it was “remains unchanged”. In addition, in data set [3], the “crystal form at high humidity” value is listed as “remains unchanged”.

For the compound `CN(C)C(=O)c1cc2cnc(Nc3ccc(N4CCNCC4)cn3)nc2n1C1CCCC1.O=C(O)CCC(=O)O` [listing 2 of 2 here], the “sensitivity of the crystal form to humidity” value is on record as “easily converts to other crystal forms at high humidity” in data set [6] and “easily convert to other crystal forms at high humidity” in data set [6] (listed as anhydrate crystal form).

As to `CN(C)C(=O)c1cc2cnc(Nc3ccc(N4CCNCC4)cn3)nc2n1C1CCCC1` [co-crystal of ribociclib and saccharin], the solubility at 1 min in “physchem” was around 100 µg/mL. In data set [2], the “appearance … after storage” value was “remain unchanged”. In addition, the “Crystal Form” value in data set [5] is listed as “Unchanged”; in data set [5] (listed as co-crystal form of ribociclib and saccharin) it was “remains unchanged”. Moreover, the weight gain is given as 0.04% in data set [7] (relative humidity of 0-10%) and 0.45% in data set [7] (relative humidity of 10 to 80%). The “crystal form at high humidity” value in data set [3] is listed as “remains unchanged”.
